Like-named read-outs stand apart in the source and are kept apart here. Where only a bound is given, the exact number is not on record here.

Data on eleven compounds can be found in publication PMC6015499 (Journal of medicinal chemistry, 2017).

The nature of data set [1]: aqueous kinetic solubility. It is filed as physicochemical. As to conditions: phosphate buffer (pH 7.4).
A short description of data set [2]: PAMPA permeability. In kind it is in vitro ADME.
The test system of data set [3] is Huh7.5.1 cells. Nature of the data set: ATPlite cytotoxicity assay. It is filed as cell-based. In general terms: In ATP-based viability assays light output follows the ATP content of the culture.
A short description of data set [4]: In vivo pharmacokinetics and tissue distribution in mice. Conditions: mouse, single i.p. dose 1 mg/kg. Further details: species or system male CD-1 mice.
Data set [5] is described as follows: ALT level in mouse serum during pharmacokinetics study. In kind it is in vivo. Conditions: mouse model.

Regarding “N-(3-(cis-3,5-Dimethylpiperidin-1-yl)propyl)-1-((2-(2-chloro-6-methoxyphenyl)-5-methyloxazol-4-yl)methyl)piperidine-4-carboxamide [7ww]”, the aqueous solubility in data set [1] was more than 73.0 µg/mL. Also, in data set [2] (PAMPA), the PAMPA permeability is recorded as 197.7 1×10^−6 cm/s.
For `Cc1oc(-c2ccc(Cl)c(Cl)c2)nc1CN1CCC(C(=O)NCCCN2C[C@H](C)C[C@H](C)C2)CC1` [7ii, N-(3-(cis-3,5-Dimethylpiperidin-1-yl)propyl)-1-((2-(3,4-dichlorophenyl)-5-methyloxazol-4-yl)methyl)piperidine-4-carboxamide], in data set [2], the PAMPA permeability was 522 1×10^−6 cm/s. The “cytotoxicity in combination (ATPlite)” value in data set [3] was “without significant cytotoxicity”. The “liver concentration throughout 24 h post-administration” value in data set [4] fell in the range of 3.33 to 9.82 µM. Moreover, the “hepatotoxicity indicated by ALT level” value in data set [5] is on record as “without obvious hepatotoxicity”.
`Cc1ccc(-c2nc(CN3CCC(C(=O)NCCCN4C[C@H](C)C[C@H](C)C4)CC3)c(C)o2)c(C)c1` [7y, N-(3-(cis-3,5-Dimethylpiperidin-1-yl)propyl)-1-((2-(2,4-dimethylphenyl)-5-methyloxazol-4-yl)methyl)piperidine-4-carboxamide]: in data set [2], the PAMPA permeability was 353.1 1×10^−6 cm/s.
`CC[C@@H]1C[C@H](CC)CN(CCCNC(=O)C2CCN(Cc3nc(-c4c(F)cccc4F)oc3C)CC2)C1` [7kk, N-(3-(cis-3,5-Diethylpiperidin-1-yl)propyl)-1-((2-(2,6-difluorophenyl)-5-methyloxazol-4-yl)methyl)piperidine-4-carboxamide]: the PAMPA permeability in data set [2] is listed as 129.9 1×10^−6 cm/s.
The same measure, in the same setting: the figure for `Cc1cccc(Cl)c1-c1nc(CN2CCC(C(=O)NCCCN3C[C@H](C)C[C@H](C)C3)CC2)c(C)o1` [7nn, N-(3-(cis-3,5-Dimethylpiperidin-1-yl)propyl)-1-((2-(2-chloro-6-methylphenyl)-5-methyloxazol-4-yl)methyl)piperidine-4-carboxamide] is 196.3 1×10^−6 cm/s; for `Cc1cccc(C)c1-c1nc(CN2CCC(C(=O)NCCCN3C[C@H](C)C[C@H](C)C3)CC2)c(C)o1` [7w, N-(3-(cis-3,5-Dimethylpiperidin-1-yl)propyl)-1-((2-(2,6-dimethylphenyl)-5-methyloxazol-4-yl)methyl)piperidine-4-carboxamide] it is 253.9 1×10^−6 cm/s.
Take `Cc1ccccc1-c1nc(CN2CCC(C(=O)NCCCN3C[C@H](C)C[C@H](C)C3)CC2)c(C)o1` [7a, N-(3-(cis-3,5-Dimethylpiperidin-1-yl)propyl)-1-((5-methyl-2-(o-tolyl)oxazol-4-yl)-methyl)piperidine-4-carboxamide]: in data set [2], the PAMPA permeability was 489.1 1×10^−6 cm/s.
Turning to `Cc1oc(-c2ccccc2Cl)nc1CN1CCC(C(=O)NCCCN2C[C@H](C)C[C@H](C)C2)CC1` [7dd, N-(3-(cis-3,5-Dimethylpiperidin-1-yl)propyl)-1-((2-(2-chlorophenyl)-5-methyloxazol-4-yl)methyl)piperidine-4-carboxamide], the PAMPA permeability in data set [2] is on record as 352.4 1×10^−6 cm/s.
As for `Cc1ccccc1-c1nc(CN2CCC(C(=O)N3CCN(CCN(C)C)CC3)CC2)c(C)o1` [7s, (4-(2-(Dimethylamino)ethyl)piperazin-1-yl)(1-((5-methyl-2-(otolyl)oxazol-4-yl)methyl)piperidin-4-yl)methanone], in data set [2], the PAMPA permeability was 14 1×10^−6 cm/s.
For `Cc1ccccc1-c1nc(CN2CCC(C(=O)N3CCN(C4CCN(C)CC4)CC3)CC2)c(C)o1` [7r, (1-((5-Methyl-2-(o-tolyl)oxazol-4-yl)methyl)piperidin-4-yl)(4-(1-methylpiperidin-4-yl)piperazin-1-yl)methanone], in data set [2], the PAMPA permeability is on record as <3.2 1×10^−6 cm/s.
Turning to `Cc1ccccc1-c1nc(CN2CCC(C(=O)NCCCN3[C@H](C)CCC[C@@H]3C)CC2)c(C)o1` [7i, N-(3-(cis-2,6-Dimethylpiperidin-1-yl)propyl)-1-((5-methyl-2-(otolyl)oxazol-4-yl)methyl)piperidine-4-carboxamide], the PAMPA permeability in data set [2] is given as 55.4 1×10^−6 cm/s.

The term aqueous solubility denotes how much of the substance goes into solution per volume. A lower aqueous solubility goes with little dissolved substance.
